Experimental data reported in patent US20240400579A1, “SPIROCYCLIC MODULATORS OF CHOLESTEROL BIOSYNTHESIS AND THEIR USE FOR PROMOTING REMYELINATION” (GENENTECH, INC., priority 2021, published 2024).

Experiments:
[1] = target: human emopamil binding protein and human 7-dehydrocholesterol reductase co-expressing cell membrane (Homo sapiens (Human), UniProt Q15125); test: hEBP-DHCR7 radioligand filtration binding assay with [3H]-Compound 118A*; conditions: radioligand [3H]-Compound 118A*; HEK293 membrane co-expressing hEBP and DHCR7
human emopamil binding protein and human 7-dehydrocholesterol reductase co-expressing cell membrane, sequence (Q15125 whole entry): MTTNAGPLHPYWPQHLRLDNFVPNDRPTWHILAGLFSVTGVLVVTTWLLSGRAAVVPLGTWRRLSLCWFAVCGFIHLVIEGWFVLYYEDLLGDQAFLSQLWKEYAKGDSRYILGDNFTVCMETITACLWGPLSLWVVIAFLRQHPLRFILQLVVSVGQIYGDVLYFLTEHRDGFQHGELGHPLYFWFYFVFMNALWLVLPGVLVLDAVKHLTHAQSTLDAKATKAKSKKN
Summary of the method: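 HEK293 membranes transiently co-expressing hEBP and hDHCR7 (10 μg/well) were incubated with [3H]-Compound 118A* (added at 25 nM) and compounds (8 doses, final 0.06–5000 nM, n=2) for 3 h at 22 °C. Bound radioactivity was read after PEI-treated GF/B filtration. IC50 came from a Hill fit of % inhibition and was converted to Ki.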

[2] = tested on: zymostenol accumulation in EpiSC-derived OPCs (EBP); test: GC/MS-based sterol profiling, zymostenol accumulation; assay type: cell-based, mouse; conditions: Mus musculus, 24 h, 8 doses from 0.15 nM to 333 nM, read-out: mZymo GCMS EC50
Summary of the method: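 EpiSC-derived mouse OPCs plated at 100,000 cells/well in N2B27 without growth factors and treated 24 h. Sterols extracted, silylated with BSTFA and measured by GC/MS (EI, full scan), quantified against cholesterol-d7. Zymostenol normalized to levels after 24 h with 100 nM positive control reference.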

human EBP = human EBP (Homo sapiens (Human), UniProt Q15125); test: Competition binding assay (SPA) to determine compound affinity to EBP; conditions: radioligand [3H]-Ifenprodil 10 nM; Ki=IC50/(1+[L]/Kd); HEK293 membrane; read-out: hEBP SPA Ki
human EBP, sequence (Q15125 whole entry): as above
Procedure: Membrane preparation: To examine compound binding affinity to EBP, human EBP was overexpressed in human embryonic kidney 293 cells. Cell pellet was lysed in 10 times weight binding buffer (50 mM Tris, 5 mM MgCl2, 0.1 mM EDTA, 1× protease inhibitor cocktail, pH 7.5) on ice by using a dounce homogenizer. The solution was centrifuged at 25,000 g for 50 min at 4° C. The membrane pellet was re-suspended in binding buffer and run through a 25 5/8 gauge needle. After checking the concentration by Bradford assay, the whole cell membrane solution was adjusted to 20 mg/mL and stored at −80° C.
This binding solution was centrifuged at 400 g for 5 minutes to collect the bead/membrane mixture. After re-suspending the pellet in binding buffer at the same calculated volume with 0.01% BSA (Sigma A1933), the bead/membrane mixture was added in 384-well low-binding surface plate (PerkinElmer Cat #6057480) at 25 i/well. Radioligand at different concentrations with and without the non-radio-labeled same ligand 5 uM (for nonspecific and total signal, respectively) was added to bring final volume to 50 i/well with DMSO concentration at 0.1%. At equilibrium (3 hours after ligand addition), radiometric signal CPM was counted by using a Microbeta2 microplate counter (Perkinelmer).
Competition binding assay to determine compound affinity: The same conditions of the radioligand Kd study were used for compound single dose percentage inhibition and equilibrium dissociation constant Ki examinations, except 50 nL compound DMSO stock was pre-added in 384-well low-binding surface plate (PerkinElmer Cat #6057480) by Echo 550 (Labcyte) to reach the final concentration for single dose test at 1 uM, and dose response test from 0.06 nM to 5 uM (8 dose, 5 times dilution). A pre-incubated bead/membrane mixture was added in compound plate at 0.3 mg beads and […] membrane per well. […] At equilibrium (3 hours after ligand addition), radiometric signal was counted as described above. The percentage inhibition of compound at each testing concentration was calculated by normalizing each condition's CPM readout to full block (5 uM non-radiolabeled ligand) and non-block (DMSO) control conditions. Compound binding inhibition IC50 was determined by nonlinear regression fitting of percentage inhibition plot against compound concentration. Compound Ki was calculated from the equation Ki=IC50/(1+[L]/Kd), which [L] was radioligand concentration used in assay. All tests had N bigger or equal to 2.

EpiSC-derived OPCs = test: In vitro phenotypic screening of OPCs, MBP high-content imaging; assay type: cell-based, mouse; conditions: Mus musculus, 72 h, percentage of MBP+ oligodendrocytes; 3 days; 0.5 nM to 1000 nM; read-out: mOPC EC50
Summary of the method: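 Mouse EpiSC-derived OPCs seeded without growth factors and exposed 3 days at 37° C. to 8-point doses, 1000 nM to 0.5 nM final. Fixed cells stained for MBP and DAPI; high-content imaging gave percentage MBP+ oligodendrocytes, with EC50 from Hill-equation fit.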

Ki [1]	EC50 [2]	Ki (human EBP)	EC50 (EpiSC-derived OPCs)	Structure (SMILES)
25.7 nM	4.8 nM	45 nM	–	C[C@H](Cc1ccc(C(F)F)cc1)CN1CCC2(C1)CS(=O)(=O)C2 (single isomer, unassigned) [Compound 128B]
176 nM	200 nM	59 nM	–	C[C@@H](Cc1cnn(CC(F)(F)F)c1)CN1CCC2(C1)CS(=O)(=O)C2 (single isomer, unassigned) [Compound 154A]
143 nM	250 nM	53 nM	–	C[C@H](Cc1cnn(CC(F)(F)F)c1)CN1CCC2(C1)CS(=O)(=O)C2 (single isomer, unassigned) [Compound 154B]

More lines, now with the values behind:

Structure (SMILES)	Ki [1]	EC50 [2]	Ki (human EBP)	EC50 (EpiSC-derived OPCs)
O=S1(=O)CC2(CCN(CC(F)Cc3ccc(C(F)(F)F)cc3)C2)C1 (racemic) [Example 142, (S)-6-(2-Fluoro-3-(4-(trifluoromethyl)phenyl)propyl)-2-thia-6-azaspiro[3.4]octane 2,2-dioxide and (R)-6-(2-fluoro-3-(4-(trifluoromethyl)phenyl)propyl)-2-thia-6-azaspiro[3.4]octane 2,2-dioxide]	16.1 nM	14 nM	35 nM	–
CC(Cc1cc(C(F)(F)F)nn1C(C)C)CN1CCC2(C1)CS(=O)(=O)C2 (racemic) [Example 155, (S)-6-(3-(1-Isopropyl-3-(trifluoromethyl)-1H-pyrazol-5-yl)-2-methylpropyl)-2-thia-6-azaspiro[3.4]octane 2,2-dioxide and (R)-6-(3-(1-isopropyl-3-(trifluoromethyl)-1H-pyrazol-5-yl)-2-methylpropyl)-2-thia-6-azaspiro[3.4]octane 2,2-dioxide]	187 nM	3 nM	14 nM	–
C[C@H](Cc1cnc(C(F)(F)F)nc1)CN1CCC2(C1)CS(=O)(=O)C2 (single isomer, unassigned) [Compound 145B]	106 nM	55 nM	100 nM	–
CC(C)(CN1CCC2(C1)CS(=O)(=O)C2)Oc1ccc(F)cc1 [Example 132, 6-(2-(4-Fluorophenoxy)-2-methylpropyl)-2-thia-6-azaspiro[3.4]octane 2,2-dioxide]	14.7 nM	7.2 nM	26 nM	–
CC(C)(CN1CCC2(C1)CS(=O)(=O)C2)Oc1ccccc1F [Example 133, 6-(2-(2-Fluorophenoxy)-2-methylpropyl)-2-thia-6-azaspiro[3.4]octane 2,2-dioxide]	86.6 nM	72 nM	89 nM	–
CC(C)(CN1CCC2(CC1)CS(=O)(=O)C2)Oc1ccc(C(F)(F)F)c(F)c1 [Example 208, 7-(2-(3-Fluoro-4-(trifluoromethyl)phenoxy)-2-methylpropyl)-2-thia-7-azaspiro[3.5]nonane 2,2-dioxide]	12.8 nM	0.69 nM	–	1.52 nM
CC(C)(CN1CC2(CCS(=O)(=O)CC2)C1)Oc1ccc(C(F)(F)F)cc1 [Example 209, 2-(2-Methyl-2-(4-(trifluoromethyl)phenoxy)propyl)-7-thia-2-azaspiro[3.5]nonane 7,7-dioxide]	13.9 nM	9.9 nM	–	45 nM
O=S1(=O)CC2(CCN(CCOc3cncc(F)c3)CC2)C1 [Example 210, 7-(2-((5-Fluoropyridin-3-yl)oxy)ethyl)-2-thia-7-azaspiro[3.5]nonane 2,2-dioxide]	504 nM	52 nM	–	282 nM
